Experimental data as given in ChEMBL document CHEMBL4028835, “Identification of low micromolar dual inhibitors for aldose reductase (ALR2) and poly (ADP-ribose) polymerase (PARP-1) using structure based design approach” (Bioorg Med Chem Lett, 2017).

Tests used:
[1] = Inhibition of goat lenses ALR2 using glyceraldehyde as substrate measured for 5 mins by UV-spectrophotometric method; set-up: species or system Capra hircus
[2] = molecular target: Poly [ADP-ribose] polymerase 1 (Homo sapiens, UniProt P09874); assay: Inhibition of PARP1 (unknown origin) using activated DNA as substrate measured after 60 mins in presence of biotinylated NAD by colorimetric assay
Chain of Poly [ADP-ribose] polymerase 1 (P09874 whole entry): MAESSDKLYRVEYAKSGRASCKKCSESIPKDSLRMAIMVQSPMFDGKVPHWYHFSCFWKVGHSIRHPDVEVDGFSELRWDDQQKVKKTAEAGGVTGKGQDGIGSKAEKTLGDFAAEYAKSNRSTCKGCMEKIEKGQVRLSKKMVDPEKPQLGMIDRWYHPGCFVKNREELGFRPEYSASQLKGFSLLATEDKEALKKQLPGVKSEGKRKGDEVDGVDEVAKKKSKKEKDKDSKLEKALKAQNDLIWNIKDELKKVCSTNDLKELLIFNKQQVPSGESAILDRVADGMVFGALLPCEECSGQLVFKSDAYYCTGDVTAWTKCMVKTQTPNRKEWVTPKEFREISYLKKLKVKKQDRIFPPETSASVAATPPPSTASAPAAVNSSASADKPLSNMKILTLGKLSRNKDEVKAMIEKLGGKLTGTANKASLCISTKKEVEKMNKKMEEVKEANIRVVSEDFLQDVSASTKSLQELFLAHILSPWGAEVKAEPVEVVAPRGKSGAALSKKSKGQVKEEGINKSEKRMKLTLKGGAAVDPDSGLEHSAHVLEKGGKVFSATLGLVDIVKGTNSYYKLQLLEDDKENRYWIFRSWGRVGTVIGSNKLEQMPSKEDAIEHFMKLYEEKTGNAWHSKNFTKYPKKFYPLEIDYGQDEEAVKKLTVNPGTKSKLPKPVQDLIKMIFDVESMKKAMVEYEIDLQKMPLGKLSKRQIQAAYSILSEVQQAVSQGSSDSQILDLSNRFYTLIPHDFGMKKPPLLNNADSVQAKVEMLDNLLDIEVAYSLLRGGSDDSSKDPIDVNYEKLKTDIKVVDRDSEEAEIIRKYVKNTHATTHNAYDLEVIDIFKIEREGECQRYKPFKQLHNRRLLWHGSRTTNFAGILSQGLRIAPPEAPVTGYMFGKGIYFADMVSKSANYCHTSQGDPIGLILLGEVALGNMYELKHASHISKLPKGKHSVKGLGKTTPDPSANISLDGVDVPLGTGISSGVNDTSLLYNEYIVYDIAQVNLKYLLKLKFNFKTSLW

IC50 [1]	IC50 [2]	SMILES
16.4 µM	> 100 µM	O=C1NC(=O)/C(=C/c2c[nH]c3ccccc23)S1
13.9 µM		CCc1ccc(Cn2cc(C=C3SC(=O)NC3=O)c3ccccc32)cc1
24.4 µM		O=C1NC(=O)/C(=C/c2cn(Cc3ccc(Cl)cc3Cl)c3ccccc23)S1
11.5 µM		Cc1ccc(Cn2cc(C=C3SC(=O)NC3=O)c3ccccc32)cc1
22.9 µM		O=C1NC(=O)/C(=C/c2cn(Cc3cccc(C(F)(F)F)c3)c3ccccc23)S1
48.5 µM		CC(C)(C)c1ccc(Cn2cc(/C=C3\SC(=O)NC3=O)c3ccccc32)cc1
6.57 µM	> 100 µM	O=C1NC(=O)/C(=C/c2cn(Cc3ccccc3)c3ccccc23)S1
15.4 µM	> 100 µM	O=C1NC(=O)/C(=C/c2cn(Cc3ccc(Cl)cc3)c3ccccc23)S1
1.7 µM		O=C1NC(=O)/C(=C/c2cn(Cc3ccc(F)cc3)c3ccccc23)S1
40 µM	0.74 µM	CC(C)c1ccc(Cn2cc(C=C3SC(=O)NC3=O)c3ccccc32)cc1
23 µM		O=C1NC(=O)/C(=C/c2cn(Cc3cccc(Cl)c3)c3ccccc23)S1
4.72 µM		O=C1NC(=O)/C(=C/c2cn(Cc3ccccc3Cl)c3ccccc23)S1
0.09 µM		CC(/C=C1\SC(=S)N(CC(=O)O)C1=O)=C\c1ccccc1
